Experimental data: patent US8748417B2, “Amino-pyrrolidine-azetidine diamides as monoacylglycerol lipase inhibitors” (Janssen Pharmaceutica, NV, priority 2010, dated 2014)

Target: T1, purified wild type MGL (wt-MGLL 6H-11-313) (Homo sapiens, UniProt Q99685)
T1 construct: purified wild type MGL (wt-MGLL 6H-11-313)
T1 sequence (Q99685 1-303): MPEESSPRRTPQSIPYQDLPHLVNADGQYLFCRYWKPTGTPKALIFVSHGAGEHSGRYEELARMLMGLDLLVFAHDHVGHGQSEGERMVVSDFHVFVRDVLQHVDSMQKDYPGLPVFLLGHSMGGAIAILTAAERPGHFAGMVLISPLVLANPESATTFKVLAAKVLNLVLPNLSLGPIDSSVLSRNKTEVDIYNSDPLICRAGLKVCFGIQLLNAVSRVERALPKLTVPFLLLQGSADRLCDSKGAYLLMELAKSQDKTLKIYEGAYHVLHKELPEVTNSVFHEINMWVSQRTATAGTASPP
Assay: MGL enzyme activity assay (4MU-B cleavage), wild type MGL
Type: biochemical
Conditions: wild type MGL 5 nM, 4MU-B 10 μM, 37° C.; read-out: MGL wild type inh IC50
Experimental: All rate-based assays were performed in black 384-well polypropylene PCR microplates (Abgene) in a total volume of 30 μL. Substrate 4-methylumbelliferyl butyrate (4MU-B; Sigma) and either purified mutant MGL (mut-MGLL 11-313 L179S L186S) or purified wild type MGL (wt-MGLL 6H-11-313) were diluted separately into 20 mM PIPES buffer (pH=7.0), containing 150 mM NaCl and 0.001% Tween 20. Compounds of Formula (I) were pre-dispensed (50 nL) into the assay plate using a Cartesian Hummingbird prior to adding 4MU-B (25 μL of 1.2× solution to a final concentration of 10 μM) followed by enzyme (5 μL of a 6× solution to a final concentration of 5 nM) to initiate the reaction. Final compound concentrations ranged from 17 to 0.0003 μM. The fluorescence change due to 4MU-B cleavage was monitored with excitation and emission wavelengths of 335 and 440 nm, respectively, and a bandwidth of 10 nm (Safire^2, Tecan) at 37° C. for 5 min.
The IC50 values for the following compounds were determined using Microsoft Office Excel from a fit of the equation to the concentration-response plot of the fractional activity as a function of inhibitor concentration.

Structure (SMILES)	IC50 [µM]
O=C(c1ccc2nc(-c3ccccc3)sc2c1)N1CC(N[C@H]2CCN(C(=O)c3nccs3)C2)C1 [Cpd 133, (3S)-N-{1-[(2-Phenyl-1,3-benzothiazol-6-yl)carbonyl]azetidin-3-yl}-1-(1,3-thiazol-2-ylcarbonyl)pyrrolidin-3-amine]	0.145
Cc1nc(-c2ccccc2F)sc1C(=O)N1CC(N[C@H]2CCN(C(=O)c3nccs3)C2)C1 [Cpd 134, (3S)-N-(1-{[2-(2-Fluorophenyl)-4-methyl-1,3-thiazol-5-yl]carbonyl}azetidin-3-yl)-1-(1,3-thiazol-2-ylcarbonyl)pyrrolidin-3-amine]	2.93
Cc1nc(-c2ccc(F)cc2)sc1C(=O)N1CC(N[C@H]2CCN(C(=O)c3nccs3)C2)C1 [Cpd 135, (3S)-N-(1-{[2-(4-Fluorophenyl)-4-methyl-1,3-thiazol-5-yl]carbonyl}azetidin-3-yl)-1-(1,3-thiazol-2-ylcarbonyl)pyrrolidin-3-amine]	1.13
Cc1nc(-c2cccc(Cl)c2)sc1C(=O)N1CC(N[C@H]2CCN(C(=O)c3nccs3)C2)C1 [Cpd 136, (3S)-N-(1-{[2-(3-Chlorophenyl)-4-methyl-1,3-thiazol-5-yl]carbonyl}azetidin-3-yl)-1-(1,3-thiazol-2-ylcarbonyl)pyrrolidin-3-amine]	0.165
Cc1nc(-c2ccc(Cl)cc2)sc1C(=O)N1CC(N[C@H]2CCN(C(=O)c3nccs3)C2)C1 [Cpd 137, (3S)-N-(1-{[2-(4-Chlorophenyl)-4-methyl-1,3-thiazol-5-yl]carbonyl}azetidin-3-yl)-1-(1,3-thiazol-2-ylcarbonyl)pyrrolidin-3-amine]	0.446
O=C(c1cscn1)N1CC[C@H](NC2CN(C(=O)c3cc4ccc(C(F)(F)F)cc4s3)C2)C1 [Cpd 139, (3S)-1-(1,3-Thiazol-4-ylcarbonyl)-N-(1-{[6-(trifluoromethyl)-1-benzothiophen-2-yl]carbonyl}azetidin-3-yl)pyrrolidin-3-amine]	0.311
Cc1cc(-c2cccc(C(F)(F)F)c2)ccc1C(=O)N1CC(N[C@H]2CCN(C(=O)c3ccccc3)C2)C1 [Cpd 153, (3S)-N-(1-{[3-Methyl-3′-(trifluoromethyl)biphenyl-4-yl]carbonyl}azetidin-3-yl)-1-(phenylcarbonyl)pyrrolidin-3-amine]	0.176
O=C(c1ccc2c(ccn2-c2ncccn2)c1)N1CC(N[C@H]2CCN(C(=O)c3ccccc3)C2)C1 [Cpd 155, (3S)-1-(Phenylcarbonyl)-N-{1-[(1-pyrimidin-2-yl-1H-indol-5-yl)carbonyl]azetidin-3-yl}pyrrolidin-3-amine]	1.28
O=C(c1ccc2c(cnn2-c2ccccc2)c1)N1CC(N[C@H]2CCN(C(=O)c3ccccc3)C2)C1 [Cpd 156, (3S)-1-(Phenylcarbonyl)-N-{1-[(1-phenyl-1H-indazol-5-yl)carbonyl]azetidin-3-yl}pyrrolidin-3-amine]	0.482
O=C(c1ccc2nc(-c3ccccc3)sc2c1)N1CC(N[C@H]2CCN(C(=O)c3ccccc3)C2)C1 [Cpd 157, (3S)-N-{1-[(2-Phenyl-1,3-benzothiazol-6-yl)carbonyl]azetidin-3-yl}-1-(phenylcarbonyl)pyrrolidin-3-amine]	0.211
Cn1cc(-c2ccccc2)c2ccc(C(=O)N3CC(N[C@H]4CCN(C(=O)c5cscn5)C4)C3)cc21 [Cpd 170, (3S)-N-{1-[(1-Methyl-3-phenyl-1H-indol-6-yl)carbonyl]azetidin-3-yl}-1-(1,3-thiazol-4-ylcarbonyl)pyrrolidin-3-amine]	0.35
O=C(c1ccccc1)N1CC[C@H](NC2CN(C(=O)c3sc4cc(Cl)ccc4c3C(F)(F)F)C2)C1 [Cpd 182, (3S)-N-(1-{[6-Chloro-3-(trifluoromethyl)-1-benzothiophen-2-yl]carbonyl}azetidin-3-yl)-1-(phenylcarbonyl)pyrrolidin-3-amine]	0.217
Cc1ccc2sc(C(=O)N3CC(N[C@H]4CCN(C(=O)c5cscn5)C4)C3)c(C(F)(F)F)c2c1 [Cpd 184, (3S)-N-(1-{[5-Methyl-3-(trifluoromethyl)-1-benzothiophen-2-yl]carbonyl}azetidin-3-yl)-1-(1,3-thiazol-4-ylcarbonyl)pyrrolidin-3-amine]	0.205
Cc1ccc2c(C(F)(F)F)c(C(=O)N3CC(N[C@H]4CCN(C(=O)c5cscn5)C4)C3)sc2c1 [Cpd 185, (3S)-N-(1-{[6-Methyl-3-(trifluoromethyl)-1-benzothiophen-2-yl]carbonyl}azetidin-3-yl)-1-(1,3-thiazol-4-ylcarbonyl)pyrrolidin-3-amine]	0.488
O=C(c1ccc2c(-c3ccc(F)cc3)c[nH]c2c1)N1CC(N[C@H]2CCN(C(=O)c3cscn3)C2)C1 [Cpd 190, (3S)-N-(1-{[3-(4-Fluorophenyl)-1H-indol-6-yl]carbonyl}azetidin-3-yl)-1-(1,3-thiazol-4-ylcarbonyl)pyrrolidin-3-amine]	0.114
O=C(c1ccc2c(-c3ccc(F)cc3)c[nH]c2c1)N1CC(N[C@H]2CCN(C(=O)c3ccccc3)C2)C1 [Cpd 191, (3S)-N-(1-{[3-(4-Fluorophenyl)-1H-indol-6-yl]carbonyl}azetidin-3-yl)-1-(phenylcarbonyl)pyrrolidin-3-amine]	0.297
Cn1nc(-c2ccccc2)c2cc(C(=O)N3CC(N[C@H]4CCN(C(=O)c5cscn5)C4)C3)ccc21 [Cpd 196, (3S)-N-{1-[(1-Methyl-3-phenyl-1H-indazol-5-yl)carbonyl]azetidin-3-yl}-1-(1,3-thiazol-4-ylcarbonyl)pyrrolidin-3-amine]	0.298
Cn1nc(-c2ccccc2)c2cc(C(=O)N3CC(N[C@H]4CCN(C(=O)c5ccccc5)C4)C3)ccc21 [Cpd 197, (3S)-N-{1-[(1-Methyl-3-phenyl-1H-indazol-5-yl)carbonyl]azetidin-3-yl}-1-(phenylcarbonyl)pyrrolidin-3-amine]	0.199
Cn1nc(-c2cccc(F)c2)c2cc(C(=O)N3CC(N[C@H]4CCN(C(=O)c5nccs5)C4)C3)ccc21 [Cpd 199, (3S)-N-(1-{[3-(3-Fluorophenyl)-1-methyl-1H-indazol-5-yl]carbonyl}azetidin-3-yl)-1-(1,3-thiazol-2-ylcarbonyl)pyrrolidin-3-amine]	0.107
Cn1nc(-c2cccc(F)c2)c2cc(C(=O)N3CC(N[C@H]4CCN(C(=O)c5cscn5)C4)C3)ccc21 [Cpd 200, (3S)-N-(1-{[3-(3-Fluorophenyl)-1-methyl-1H-indazol-5-yl]carbonyl}azetidin-3-yl)-1-(1,3-thiazol-4-ylcarbonyl)pyrrolidin-3-amine]	0.843
Cn1nc(-c2cccc(F)c2)c2cc(C(=O)N3CC(N[C@H]4CCN(C(=O)c5ccccc5)C4)C3)ccc21 [Cpd 201, (3S)-N-(1-{[3-(3-Fluorophenyl)-1-methyl-1H-indazol-5-yl]carbonyl}azetidin-3-yl)-1-(phenylcarbonyl)pyrrolidin-3-amine]	0.459
Cn1nc(-c2ccc(F)cc2)c2cc(C(=O)N3CC(N[C@H]4CCN(C(=O)c5nccs5)C4)C3)ccc21 [Cpd 209, (3S)-N-(1-{[3-(4-Fluorophenyl)-1-methyl-1H-indazol-5-yl]carbonyl}azetidin-3-yl)-1-(1,3-thiazol-2-ylcarbonyl)pyrrolidin-3-amine]	0.279
Cn1nc(-c2ccc(F)cc2)c2cc(C(=O)N3CC(N[C@H]4CCN(C(=O)c5cscn5)C4)C3)ccc21 [Cpd 210, (3S)-N-(1-{[3-(4-Fluorophenyl)-1-methyl-1H-indazol-5-yl]carbonyl}azetidin-3-yl)-1-(1,3-thiazol-4-ylcarbonyl)pyrrolidin-3-amine]	2.04
